The values that follow come from ChEMBL document CHEMBL1145498, “A systematic interaction map of validated kinase inhibitors with Ser/Thr kinases” (Proc Natl Acad Sci U S A, 2007).

Assay [1] deals with Serine/threonine-protein kinase Chk2 (Homo sapiens, UniProt O96017).
For assay [2], the target named is Tyrosine-protein kinase JAK1 (Homo sapiens) (UniProt P23458).
The target of assay [3] is Mitogen-activated protein kinase 11 (Homo sapiens, UniProt Q15759).
Assay [4] concerns the target T1, Serine/threonine-protein kinase Nek2 (Homo sapiens) (UniProt P51955).
T1 sequence (whole entry): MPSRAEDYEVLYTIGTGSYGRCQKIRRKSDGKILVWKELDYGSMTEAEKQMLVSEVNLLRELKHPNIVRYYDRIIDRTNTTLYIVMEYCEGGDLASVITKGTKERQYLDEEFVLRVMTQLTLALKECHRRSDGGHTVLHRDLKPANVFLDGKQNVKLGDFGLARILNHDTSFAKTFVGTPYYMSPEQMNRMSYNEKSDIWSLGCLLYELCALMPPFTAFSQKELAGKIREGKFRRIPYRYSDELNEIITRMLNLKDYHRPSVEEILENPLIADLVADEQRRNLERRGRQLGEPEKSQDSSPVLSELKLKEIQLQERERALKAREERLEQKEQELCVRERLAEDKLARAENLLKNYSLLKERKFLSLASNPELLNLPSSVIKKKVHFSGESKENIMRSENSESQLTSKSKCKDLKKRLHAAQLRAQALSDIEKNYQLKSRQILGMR

The target of assay [5] is Serine/threonine-protein kinase PAK 4 (Homo sapiens) (UniProt O96013).
Serine/threonine-protein kinase PAK 4 (Homo sapiens), sequence (O96013 whole entry, looked up): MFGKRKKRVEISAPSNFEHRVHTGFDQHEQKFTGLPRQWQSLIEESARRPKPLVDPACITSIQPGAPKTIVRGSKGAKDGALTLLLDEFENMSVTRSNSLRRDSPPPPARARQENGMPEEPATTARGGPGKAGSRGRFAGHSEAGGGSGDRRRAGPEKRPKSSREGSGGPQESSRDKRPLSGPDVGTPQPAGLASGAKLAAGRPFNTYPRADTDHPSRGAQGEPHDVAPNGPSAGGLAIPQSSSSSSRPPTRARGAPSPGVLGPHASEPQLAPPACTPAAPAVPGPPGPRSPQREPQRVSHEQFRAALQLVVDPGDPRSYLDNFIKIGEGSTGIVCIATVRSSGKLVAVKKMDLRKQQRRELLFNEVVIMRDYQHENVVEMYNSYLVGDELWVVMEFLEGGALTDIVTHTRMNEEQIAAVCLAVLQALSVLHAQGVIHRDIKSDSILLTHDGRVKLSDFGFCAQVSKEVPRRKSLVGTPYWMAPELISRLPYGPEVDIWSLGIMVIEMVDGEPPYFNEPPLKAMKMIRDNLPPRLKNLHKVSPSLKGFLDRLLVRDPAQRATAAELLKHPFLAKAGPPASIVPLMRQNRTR
Assay [6] addresses Serine/threonine-protein kinase PAK 5 (Homo sapiens) (UniProt Q9P286).
For assay [7], the target named is T2, 3-phosphoinositide-dependent protein kinase 1 (Homo sapiens) (UniProt O15530).
T2 sequence (whole entry): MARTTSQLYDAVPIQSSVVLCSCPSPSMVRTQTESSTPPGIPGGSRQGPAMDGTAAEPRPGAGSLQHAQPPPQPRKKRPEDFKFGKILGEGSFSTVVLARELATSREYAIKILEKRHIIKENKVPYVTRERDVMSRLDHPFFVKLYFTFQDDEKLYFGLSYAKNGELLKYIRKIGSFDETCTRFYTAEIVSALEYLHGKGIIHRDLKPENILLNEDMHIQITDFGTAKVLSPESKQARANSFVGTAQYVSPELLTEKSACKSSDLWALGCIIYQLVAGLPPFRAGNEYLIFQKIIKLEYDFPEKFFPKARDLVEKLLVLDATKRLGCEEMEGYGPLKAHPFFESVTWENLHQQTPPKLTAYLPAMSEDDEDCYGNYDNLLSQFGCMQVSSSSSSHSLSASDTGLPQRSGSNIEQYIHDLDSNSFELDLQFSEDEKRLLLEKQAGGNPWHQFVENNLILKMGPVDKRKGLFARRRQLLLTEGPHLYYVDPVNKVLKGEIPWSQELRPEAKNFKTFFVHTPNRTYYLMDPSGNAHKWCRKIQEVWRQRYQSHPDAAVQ

For assay [8], the target named is Serine/threonine-protein kinase pim-3 (Homo sapiens) (UniProt Q86V86).
Assay [9] addresses T3, Serine/threonine-protein kinase PLK4 (Homo sapiens) (UniProt O00444).
T3 sequence (whole entry): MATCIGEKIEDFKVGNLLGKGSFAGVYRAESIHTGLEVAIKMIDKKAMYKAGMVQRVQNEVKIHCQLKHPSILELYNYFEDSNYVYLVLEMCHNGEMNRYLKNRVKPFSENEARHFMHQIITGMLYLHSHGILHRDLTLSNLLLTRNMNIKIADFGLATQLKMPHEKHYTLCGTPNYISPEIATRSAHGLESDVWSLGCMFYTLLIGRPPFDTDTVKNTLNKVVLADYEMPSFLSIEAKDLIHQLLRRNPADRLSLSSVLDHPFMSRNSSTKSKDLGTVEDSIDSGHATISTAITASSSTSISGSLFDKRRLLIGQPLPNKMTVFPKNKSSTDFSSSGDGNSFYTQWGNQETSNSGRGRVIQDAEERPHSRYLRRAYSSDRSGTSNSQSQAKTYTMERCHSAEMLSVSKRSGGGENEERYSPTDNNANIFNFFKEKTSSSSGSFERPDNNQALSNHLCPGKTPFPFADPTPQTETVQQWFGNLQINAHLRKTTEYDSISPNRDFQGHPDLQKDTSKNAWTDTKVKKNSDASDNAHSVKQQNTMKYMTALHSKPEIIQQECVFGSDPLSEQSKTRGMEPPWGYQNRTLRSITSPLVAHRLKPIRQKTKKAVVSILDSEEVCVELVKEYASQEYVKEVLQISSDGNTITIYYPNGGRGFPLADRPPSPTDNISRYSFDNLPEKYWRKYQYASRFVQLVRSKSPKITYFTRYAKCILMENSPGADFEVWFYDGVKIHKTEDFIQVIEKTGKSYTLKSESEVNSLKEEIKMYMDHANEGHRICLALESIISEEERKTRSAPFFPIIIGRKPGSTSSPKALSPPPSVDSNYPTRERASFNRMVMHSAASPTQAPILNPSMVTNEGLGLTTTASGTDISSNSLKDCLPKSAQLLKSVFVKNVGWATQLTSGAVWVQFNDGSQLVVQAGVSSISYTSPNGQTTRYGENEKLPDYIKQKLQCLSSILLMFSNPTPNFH

Assay [10] deals with cAMP-dependent protein kinase catalytic subunit alpha (Homo sapiens) (UniProt P17612).
In assay [11] the target is STE20-like serine/threonine-protein kinase (Homo sapiens) (UniProt Q9H2G2).
STE20-like serine/threonine-protein kinase (Homo sapiens), sequence (Q9H2G2 whole entry, looked up): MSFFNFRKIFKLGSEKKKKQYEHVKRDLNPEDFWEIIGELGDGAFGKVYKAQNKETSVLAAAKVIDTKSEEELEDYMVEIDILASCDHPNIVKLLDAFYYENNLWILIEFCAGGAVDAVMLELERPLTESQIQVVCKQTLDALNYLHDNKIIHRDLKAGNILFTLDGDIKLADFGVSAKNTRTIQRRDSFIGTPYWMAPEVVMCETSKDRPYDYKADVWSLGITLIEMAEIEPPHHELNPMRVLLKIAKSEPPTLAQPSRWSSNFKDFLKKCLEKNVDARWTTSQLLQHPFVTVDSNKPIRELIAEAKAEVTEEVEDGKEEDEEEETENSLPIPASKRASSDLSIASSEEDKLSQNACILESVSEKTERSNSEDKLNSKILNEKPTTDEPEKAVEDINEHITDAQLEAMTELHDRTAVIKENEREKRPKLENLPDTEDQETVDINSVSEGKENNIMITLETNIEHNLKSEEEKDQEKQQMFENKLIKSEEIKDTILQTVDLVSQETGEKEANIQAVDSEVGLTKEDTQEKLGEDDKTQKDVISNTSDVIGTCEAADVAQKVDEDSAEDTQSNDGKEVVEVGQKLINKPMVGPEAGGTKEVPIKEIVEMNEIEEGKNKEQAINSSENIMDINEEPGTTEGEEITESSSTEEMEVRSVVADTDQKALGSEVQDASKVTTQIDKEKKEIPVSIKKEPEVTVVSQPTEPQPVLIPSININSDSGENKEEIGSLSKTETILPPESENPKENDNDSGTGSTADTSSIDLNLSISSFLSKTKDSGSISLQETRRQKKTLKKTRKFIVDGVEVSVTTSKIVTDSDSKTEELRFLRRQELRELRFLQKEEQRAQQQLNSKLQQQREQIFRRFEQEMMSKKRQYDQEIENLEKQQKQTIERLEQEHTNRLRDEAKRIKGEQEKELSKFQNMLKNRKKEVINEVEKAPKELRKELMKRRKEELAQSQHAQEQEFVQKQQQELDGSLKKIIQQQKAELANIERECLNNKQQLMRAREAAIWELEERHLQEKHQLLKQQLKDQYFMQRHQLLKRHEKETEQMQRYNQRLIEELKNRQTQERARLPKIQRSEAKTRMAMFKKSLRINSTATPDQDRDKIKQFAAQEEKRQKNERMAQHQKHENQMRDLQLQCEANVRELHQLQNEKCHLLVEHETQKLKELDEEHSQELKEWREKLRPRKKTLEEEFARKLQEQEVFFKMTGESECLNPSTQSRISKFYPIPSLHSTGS
The target in assay [12] is T4, Serine/threonine-protein kinase VRK1 (Homo sapiens) (UniProt Q99986).
T4 sequence (whole entry): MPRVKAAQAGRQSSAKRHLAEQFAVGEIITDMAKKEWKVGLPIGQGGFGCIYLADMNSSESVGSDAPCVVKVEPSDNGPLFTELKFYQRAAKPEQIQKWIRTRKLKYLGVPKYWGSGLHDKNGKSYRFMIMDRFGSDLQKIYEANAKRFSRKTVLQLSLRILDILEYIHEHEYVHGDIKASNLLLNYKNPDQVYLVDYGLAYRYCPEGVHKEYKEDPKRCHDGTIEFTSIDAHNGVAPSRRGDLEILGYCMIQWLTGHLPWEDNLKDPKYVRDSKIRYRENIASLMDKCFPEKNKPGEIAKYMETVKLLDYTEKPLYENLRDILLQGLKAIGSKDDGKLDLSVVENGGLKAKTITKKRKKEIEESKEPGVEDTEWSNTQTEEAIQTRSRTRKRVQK

Serine/threonine-protein kinase PAK 5 (Homo sapiens), sequence (Q9P286 whole entry, looked up): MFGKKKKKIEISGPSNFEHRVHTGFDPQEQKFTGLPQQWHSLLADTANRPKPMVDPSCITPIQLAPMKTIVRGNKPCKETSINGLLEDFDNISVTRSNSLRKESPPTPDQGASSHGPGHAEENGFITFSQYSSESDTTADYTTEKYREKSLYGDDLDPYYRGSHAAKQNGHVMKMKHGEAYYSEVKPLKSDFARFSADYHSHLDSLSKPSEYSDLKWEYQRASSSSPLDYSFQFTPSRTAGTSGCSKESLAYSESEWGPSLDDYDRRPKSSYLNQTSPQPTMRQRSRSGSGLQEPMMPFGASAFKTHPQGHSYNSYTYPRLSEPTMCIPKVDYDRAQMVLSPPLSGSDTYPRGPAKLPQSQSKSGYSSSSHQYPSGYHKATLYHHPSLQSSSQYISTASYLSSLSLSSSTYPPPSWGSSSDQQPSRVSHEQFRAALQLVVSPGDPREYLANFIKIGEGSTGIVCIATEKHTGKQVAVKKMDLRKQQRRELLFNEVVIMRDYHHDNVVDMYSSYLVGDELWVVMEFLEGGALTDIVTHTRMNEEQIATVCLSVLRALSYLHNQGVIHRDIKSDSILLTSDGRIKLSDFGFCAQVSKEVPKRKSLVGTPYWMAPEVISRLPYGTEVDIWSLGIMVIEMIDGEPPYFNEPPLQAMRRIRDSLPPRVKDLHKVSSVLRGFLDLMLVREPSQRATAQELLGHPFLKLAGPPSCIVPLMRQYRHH
Serine/threonine-protein kinase Chk2, sequence (O96017 whole entry): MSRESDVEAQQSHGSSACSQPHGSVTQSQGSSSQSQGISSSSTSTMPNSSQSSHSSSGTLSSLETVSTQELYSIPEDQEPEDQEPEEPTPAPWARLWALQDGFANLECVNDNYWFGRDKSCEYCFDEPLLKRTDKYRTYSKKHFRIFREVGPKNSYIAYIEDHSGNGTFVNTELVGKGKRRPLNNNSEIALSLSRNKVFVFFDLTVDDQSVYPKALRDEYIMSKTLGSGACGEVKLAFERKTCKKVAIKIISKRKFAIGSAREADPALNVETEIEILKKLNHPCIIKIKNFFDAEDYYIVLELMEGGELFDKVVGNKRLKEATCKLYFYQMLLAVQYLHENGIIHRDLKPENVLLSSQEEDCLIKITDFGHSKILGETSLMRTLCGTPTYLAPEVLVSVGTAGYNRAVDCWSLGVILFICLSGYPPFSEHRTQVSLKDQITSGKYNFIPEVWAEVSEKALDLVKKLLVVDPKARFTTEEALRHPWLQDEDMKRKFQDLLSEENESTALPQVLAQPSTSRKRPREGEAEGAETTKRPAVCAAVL
Tyrosine-protein kinase JAK1 (Homo sapiens), sequence (P23458 whole entry): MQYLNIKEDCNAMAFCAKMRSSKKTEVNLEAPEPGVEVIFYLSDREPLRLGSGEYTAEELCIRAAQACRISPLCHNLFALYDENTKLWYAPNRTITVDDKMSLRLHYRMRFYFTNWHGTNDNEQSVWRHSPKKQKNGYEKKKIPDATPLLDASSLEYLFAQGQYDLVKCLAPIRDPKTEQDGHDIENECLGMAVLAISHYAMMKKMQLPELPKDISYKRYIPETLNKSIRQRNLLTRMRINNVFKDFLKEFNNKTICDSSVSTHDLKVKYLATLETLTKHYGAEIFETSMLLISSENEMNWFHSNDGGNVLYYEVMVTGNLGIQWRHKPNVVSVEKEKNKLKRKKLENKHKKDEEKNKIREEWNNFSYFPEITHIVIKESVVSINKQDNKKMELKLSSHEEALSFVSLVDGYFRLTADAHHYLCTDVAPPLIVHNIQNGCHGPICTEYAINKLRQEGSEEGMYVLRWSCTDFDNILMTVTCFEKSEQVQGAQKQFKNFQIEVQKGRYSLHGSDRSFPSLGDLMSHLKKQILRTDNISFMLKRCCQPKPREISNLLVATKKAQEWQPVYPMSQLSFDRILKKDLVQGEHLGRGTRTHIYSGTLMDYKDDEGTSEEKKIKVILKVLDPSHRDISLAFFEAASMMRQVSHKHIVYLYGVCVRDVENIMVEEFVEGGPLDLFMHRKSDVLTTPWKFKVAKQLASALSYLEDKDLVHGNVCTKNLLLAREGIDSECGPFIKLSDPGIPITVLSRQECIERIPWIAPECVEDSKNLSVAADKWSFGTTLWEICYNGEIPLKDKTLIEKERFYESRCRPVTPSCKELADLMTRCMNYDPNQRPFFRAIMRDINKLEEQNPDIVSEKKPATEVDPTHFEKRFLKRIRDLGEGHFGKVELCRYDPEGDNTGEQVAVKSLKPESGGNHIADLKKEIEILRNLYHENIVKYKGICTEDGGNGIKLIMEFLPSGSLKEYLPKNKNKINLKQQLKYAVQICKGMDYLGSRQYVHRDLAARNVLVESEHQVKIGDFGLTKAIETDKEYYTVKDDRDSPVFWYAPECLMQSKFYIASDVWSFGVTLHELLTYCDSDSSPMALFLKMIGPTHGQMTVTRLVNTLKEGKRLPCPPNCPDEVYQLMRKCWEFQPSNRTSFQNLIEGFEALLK
Mitogen-activated protein kinase 11, sequence (Q15759 whole entry): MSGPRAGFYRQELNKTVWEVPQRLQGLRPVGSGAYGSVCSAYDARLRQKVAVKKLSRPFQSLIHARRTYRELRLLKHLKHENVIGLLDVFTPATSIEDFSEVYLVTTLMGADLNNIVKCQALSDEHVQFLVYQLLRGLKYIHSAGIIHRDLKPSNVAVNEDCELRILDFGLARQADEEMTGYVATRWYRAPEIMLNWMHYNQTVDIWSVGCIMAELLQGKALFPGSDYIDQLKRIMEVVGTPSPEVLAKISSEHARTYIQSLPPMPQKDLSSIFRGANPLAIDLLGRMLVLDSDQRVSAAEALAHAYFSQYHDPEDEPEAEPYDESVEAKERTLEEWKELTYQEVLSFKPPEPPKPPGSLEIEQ

Regarding `COc1ccc(Cl)cc1NC(=O)Nc1cc(C)nc2ccccc12`, the ΔTm in assay [1] is 2.4 °C; in assay [2], 0.5 °C; in assay [3], 1.4 °C; in assay [4], 0.3 °C; in assay [5], -0.6 °C; in assay [6], 2.6 °C. The shift in melting temperature (ΔTm) in assay [7] worked out at 3 °C; in assay [8], 0.8 °C; in assay [9], 3.4 °C; in assay [10] it was 4.8 °C; in [11], 1.4 °C.

On to `O=C(Nc1cccc(Nc2nccc(Nc3cccc(C(F)(F)F)c3)n2)c1)C1CC1` [ANILINOPYRIMIDINE1], for which the ΔTm turned out to be 3.8 °C in assay [1]; 2.6 °C in [2]; 0.8 °C in assay [3]; 1.3 °C in [4]; 1.5 °C in assay [5]; 2.6 °C in [6]. The shift in melting temperature (ΔTm) in assay [7] is 1.6 °C; in assay [8], -0.7 °C; in assay [9], 2.2 °C; in assay [10] it was 1.3 °C; in assay [11], 4.1 °C.

Consider `C[S+]([O-])c1ccc(-c2nc(-c3ccc(F)cc3)c(-c3ccncc3)[nH]2)cc1` (stereo not given) [SB-203580], for which the shift in melting temperature (ΔTm) is -0.5 °C in assay [1]; 2.3 °C in assay [2]; 9.6 °C in assay [3]; 0.3 °C in assay [4]; 0.1 °C in assay [5]; -0.1 °C in assay [6]. In addition, the shift in melting temperature (ΔTm) in assay [7] is -0.1 °C; in assay [8], 0 °C; in assay [9] it was 0.7 °C; in assay [10], 0 °C; in assay [12], -0.1 °C.

Turning to `CN(C)C[C@@H]1CCn2cc(c3ccccc32)C2=C(C(=O)NC2=O)c2cn(c3ccccc23)CCO1` [RUBOXISTAURIN], the thermal shift (ΔTm) in assay [1] was 3.5 °C; in assay [2], -0.5 °C; in assay [3], 0.3 °C; in assay [4], 1.5 °C; in [6], 0.9 °C; in assay [7] it was 0.2 °C. Moreover, the ΔTm stood at 5.8 °C in assay [8], 1.5 °C in assay [9], 7 °C in assay [11] and 0.8 °C in [12].

`O=C(Nc1cccc(Nc2cc(Nc3cccc(C(F)(F)F)c3)ncn2)c1)C1CC1`: the thermal shift (ΔTm) in [1] is 2.4 °C; in [2], 1.7 °C; in assay [3], 2.8 °C; in assay [4] it was 2 °C; in assay [5] it was 0.9 °C; in assay [6], 1 °C. In addition, the thermal shift (ΔTm) turned out to be 1.7 °C in assay [7]; 0.1 °C in [8]; 2 °C in assay [9]; 1.1 °C in assay [10]; 3.2 °C in [11].

Turning to `CC(C)[C@H](CO)Nc1nc(Nc2cc(N)cc(Cl)c2)c2ncn(C(C)C)c2n1` [AMINOPURVALANOL], the shift in melting temperature (ΔTm) in [1] was 7.5 °C; in assay [2], 0.1 °C; in assay [3], 2.8 °C; in assay [4], 4.8 °C; in [5], -0.1 °C; in assay [6] it was 0.3 °C. Moreover, the thermal shift (ΔTm) in assay [7] came out at 1.4 °C; in [8] it was 6.7 °C; in assay [9], 6.2 °C; in [10], 6.5 °C; in assay [11] it was 3.5 °C.

For `Cc1nc(N)sc1-c1ccnc(Nc2cccc([N+](=O)[O-])c2)n1`, the ΔTm in assay [1] turned out to be 9.7 °C; in [2], 4.8 °C; in assay [3], 1.2 °C; in assay [4] it was 2.2 °C; in [5] it was 1.6 °C; in assay [6], 7.1 °C. The thermal shift (ΔTm) is 1.9 °C in assay [7]; 1.8 °C in assay [8]; 2.3 °C in assay [9]; 4.8 °C in assay [10]; 10 °C in assay [11].

`Cc1ccc(NC2=CC(=O)c3sc(C)nc3C2=O)cc1`: the ΔTm is -1.8 °C in assay [1]; -0.9 °C in [2]; -0.6 °C in assay [3]; -1.2 °C in assay [4]; -0.7 °C in assay [5]; 0.4 °C in assay [6]. Moreover, the shift in melting temperature (ΔTm) in assay [7] is -3.4 °C; in [8], -0.4 °C; in [9] it was -0.3 °C; in [10], -0.4 °C; in assay [11] it was -0.6 °C.

For `CN1CCc2[nH]c(=S)c(C#N)c(-c3cccs3)c2C1`, the ΔTm in assay [1] is 5.3 °C; in [2], -0.1 °C; in [3], 4.3 °C; in assay [4], 1 °C; in assay [5] it was -0.4 °C; in [6], 0.8 °C. Further, the shift in melting temperature (ΔTm) in [7] worked out at 1.5 °C; in assay [8] it was 4.2 °C; in assay [9] it was 10.7 °C; in assay [10], 14.1 °C; in [11] it was 5.9 °C.

For the molecule `CC(C)c1nn(-c2c(Cl)cccc2Cl)c2nc(Cc3ccc(OCCO)cc3)[nH]c(=O)c12`, the ΔTm in assay [1] is 3.6 °C; in [2], 0.2 °C; in [3], 0.7 °C; in assay [4] it was 1.5 °C; in assay [5], 2.2 °C; in assay [6] it was 6.2 °C. The ΔTm in assay [7] is 0 °C; in [8] it was -0.4 °C; in assay [9], 2.9 °C; in assay [10], -0.1 °C; in [11] it was -0.5 °C.

Consider `CN(c1cccnc1)c1cc2c(Nc3ccc(F)c(Cl)c3)c(C#N)cnc2cn1`, for which the ΔTm amounted to 5 °C in [1]; 0.4 °C in [2]; 0.7 °C in [3]; 0.7 °C in assay [4]; 2.6 °C in [5]; 1 °C in [6]. Moreover, the thermal shift (ΔTm) in assay [7] is 1.2 °C; in assay [8], -0.2 °C; in [9], 8.2 °C; in assay [10], 2.2 °C; in [11], 4.2 °C.

One may read the ΔTm as the change in melting temperature against a reference sample.
